System: a variety of test species
Assay: Post-emergence herbicidal activity (glasshouse, sprayed 8 days after sowing, evaluated after 13 days)
Format: in vivo
Settings: 1000 g/ha, scale 0-5
Summary of the method: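 Pot-grown plants, 8 days after sowing, were sprayed with compound formulated in acetone/water (50:50) with 0.5% Tween 20. Glasshouse conditions 24/16° C day/night, 14 h light, 65% humidity; damage scored after 13 days on a 0 (none) to 5 (total) scale.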

Row | SMILES | Post-emergence herbicidal damage score, ABUTH (Abutilon theophrasti) | Post-emergence herbicidal damage score, ALOMY (Alopecurus myosuroides) | Post-emergence herbicidal damage score, AMARE (Amaranthus retroflexus) | Post-emergence herbicidal damage score, ECHCG (Echinochloa crus-galli) | Post-emergence herbicidal damage score, SETFA (Setaria faberi) | Post-emergence herbicidal damage score, ZEAMX (Zea mays)
1 | CC(C)=Cc1cc(N2C(=O)C(C)=C(Cl)C2O)nn1C (stereo not drawn) [Compound B7, 3-chloro-2-hydroxy-4-methyl-1-[1-methyl-5-(2-methylprop-1-enyl)pyrazol-3-yl]-2H-pyrrol-5-one] | 4 | 0 | 3 | 1 | 5 | 2
2 | CC1=C(Cl)C(O)N(c2cc(C(F)(F)F)n(C(C)C)n2)C1=O (stereo not drawn) [Compound C4] | 0 | 0 | 1 | 1 | 1 | 1
3 | CC(C)=CCc1cc(N2C(=O)C(C)=C(Cl)C2O)nn1C (stereo not drawn) [Compound B10, 3-chloro-2-hydroxy-4-methyl-1-[1-methyl-5-(3-methylbut-2-enyl)pyrazol-3-yl]-2H-pyrrol-5-one] | 2 | 0 | 0 | 2 | 3 | 0
4 | CC1=C(Cl)C(O)N(c2cc(C(F)(F)C(F)(F)F)n(C)n2)C1=O (stereo not drawn) [Compound B4] | 5 | 4 | 5 | 4 | 3 | 0
5 | CCOC(C)(CC)c1cc(N2C(=O)C(C)=C(Cl)C2O)nn1C (mixture of isomers) [Compound B14] | 5 | 3 | 4 | 4 | 4 | 1
6 | CCOC(c1cc(N2C(=O)C(C)=C(Cl)C2O)nn1C)C(C)(C)C (mixture of isomers) [Compound B16] | 0 | 0 | 0 | 0 | 0 | 0
7 | C=C(C)c1cc(N2C(=O)C(C)=C(Cl)C2O)nn1C (stereo not drawn) [Compound B25] | 5 | 4 | 5 | 5 | 5 | 2
8 | CC1=C(Cl)C(O)N(c2cc(S(C)(=O)=O)n(C)n2)C1=O (stereo not drawn) [Compound B20] | 5 | 3 | 5 | 4 | 5 | 0
